# Measured values as given in US20230312577A1, “DUAL KINASE-BROMODOMAIN INHIBITORS” (MONASH UNIVERSITY, priority 2020, published 2023).
# Tests used:
# [1] = test system: panel of human multiple myeloma cell lines; assay: Apoptosis assay (TMRE, flow cytometry); assay type: cell-based; conditions: 48 h
# Method: A panel of human multiple myeloma cell lines (3×10^5) was incubated in the presence of Cpd 010 or DMSO vehicle control with indicated concentrations for 48 h before flow cytometric analysis of viability using Tetramethylrhodamine ethylester (TMRE) stains. Further apoptotic assay using only OPM2 cells was carried out using Cpd 010 or DMSO with TMRE stains.
# MYC gene = assay: RT-qPCR in OPM2 cells; assay type: cell-based, human; conditions: 2 h
# Method: OPM2 cells (1×10^6) were treated with Cpd 010 or DMSO vehicle at indicated concentrations for 2 h. RNA was extracted from cell pellets using the PureLink™ RNA Mini Kit (ThermoFisher Scientific, #121839025) as per the manufacturer's instructions. cDNA was syn thesised with the SuperScript™ III cDNA synthesis kit (ThermoFisher Scientific, #18080093) according to the manufacturer's instructions. Quantitative PCR analysis of samples was per formed on the QuantStudio7 Flex RT-PCR system (ThermoFisher) with SYBR™ Master Mix (ThermoFisher Scientific, #4472903). L32 were used as the human control gene. Primer se quences were: Homo sapiens MYC F: […] R: […], Homo sapiens L32 F: […] R: TTGTGAGCGATCTCGGCAC. Each RT-qPCR am plification was performed in triplicate (technical triplicates) and repeated 2 times (biological replicates).
# MYC target genes = assay: RNA-Seq and Gene Set Enrichment Analysis (GSEA) in OPM2 cells; assay type: cell-based, human; conditions: 250 nM, 2 h
# Method: OPM2 cells (4×10^6) were treated with 250 nM of Cpd 010 or DMSO vehicle for 2 h. Cells pellets were collected, and RNA was extracted using the Nucleospin RNA extraction kit (Macherey-Nagel) as per the manufacturer's instructions. The QuantSeq 30 mRNA-seq Library Prep Kit for Illumina (Lexogen) was used to generate libraries as per the manufacturer's instructions, which were sequenced on the NextSeq (Illumina; 75 bp SE). GSEA2-2.2.2 was used for identification of enriched signatures obtained from the MSigDB Hallmarks datasets (Liber-zon et al., 2015). Samples were prepared in technical triplicates.
# [2] = test system: MLL-AF9 cells (IBET-151-sensitive and IBET-151-resistant); assay: Apoptosis assay in BET-inhibitor-resistant cells (Annexin V/PI); assay type: cell-based, mouse; conditions: 72 h, Annexin V/PI
# Method: Mouse AML cells; MLL-AF9 (IBET-151-sensitive and IBET-151-resistant) (5×10^4) were treated with indicated compounds for 72 h. Apoptotic analysis was performed by flow cytometry using Annexin V/propidium iodide (PI) stains. Data were collected on a BD LSR-Fortessa X20 (BD Biosciences) and analysed using FlowJo Software, version 10.0.7 (Tree Star). IC50 were calculated using the GraphPad Prism Software Version 7.0c. Data are representative of biological triplicates.
# OPM2 cells = assay: Synergy between PI3K and BET inhibitors, apoptosis assay (TMRE) and synergy score; assay type: cell-based, human
# Method: An apoptosis assay using TMRE stain by flow cytometry was performed in OPM2 cells with indicated compounds. […] Using Synergyfinder web application (https://synergyfinder.fimm.fi), synergy score was calculated. Zero Interaction Potency (ZIP) reference models was utilised.
# Vk*MYC myeloma cells = assay: In vivo therapeutic assessment, Vk*MYC multiple myeloma mouse model; conditions: once daily, 5 days a week, 3 weeks
# Method: For Vk*MYC multiple myeloma mouse models, wild type C57/B16 mice were irradi-ated with 2 fractions of 3.3Gy (Gammacell® 40 caesium source, Atomic Energy of Canada Ltd., Ontario, Canada) prior to transplantation of Vk*MYC myeloma cells (2.4×10^5). Mice were monitored for tumour progression by measuring M-proteins via serum protein electropho-resis (SPEP). Mice were treated with 3 weeks of Cpd 010 or vehicle once daily (5 days a week) for 3 weeks when their average SPEP has reached 7-10%. Serial measurement of SPEP was carried out during and post therapy. Overall survival was recorded.
# Eμ-Myc lymphoma cells = assay: In vivo tumour burden from a single dose, Eμ-Myc lymphoma; set-up: species or system mouse
# Method: (§1) B6.SJL-PtprcPepc/BoyJ (B6.CD45.1) mice were inoculated via tail vein injection with 5×10^5 Eμ-Myc lymphoma cells and left untreated for 12-14 days. A single injection of Cpd 010 at 35-45 mg/kg, or vehicle control (30% HPBCD) was administered. Half of the mice (n=6) were harvested 6 h post injection while the other half (n=6) were harvested 16 h later. Assessment of tumour burden was carried out on single cell suspension of harvested lymph nodes, spleen and blood by flow cytometry using antibodies as above. PD-L1 MFI was assessed by flow cytometry in harvested LNs using anti-mouse PD-L1-PE (ThermoFisher Scientific, clone MIH5) or isotype control antibodies (Mouse IgG2b PE, #559529). Harvested LNs were also washed in PBS and lysates were collected using Laemmli Buffer (AlfaAeser #J61337). They were processed as per our Western Blot protocol (see above) before they were probed for primary pAKT antibodies. Spleen size and weights were also measured between the treatment groups.
# [3] = test system: PD-L1 and pAKT (PI3K substrate); assay: In vivo target engagement from a single dose (PD-L1, pAKT), Eμ-Myc lymphoma; set-up: species or system mouse; conditions: single dose 35-45 mg/kg
# Method: as §1
# In terms of target engagement, PD-L1 expression in the tumour cells were measured in the harvested LN and spleen. As expression of the Myc transgene in Eμ-Myc is not BET-de pendent, MYC cannot be measured as a read-out of BET inhibition, therefore PD-L1 was used as an indicator for BET inhibition. […] Similarly, pAKT (PI3K substrate) was suppressed by Cpd 010 in the lysates made from harvested LN.
# BRD4 = BRD4 (Homo sapiens, UniProt O60885); assay: Cellular thermal shift assay (CETSA) in Ramos cells; assay type: cell-based; set-up: endogenous in cells; conditions: 20 μM, 40 min, vs DMSO
# Method: Ramos cells (human Burkitt lymphoma cell line) at 20×10^6 were washed in PBS followed by resuspension in 5 mL serum-free RPMI. They were treated either with Cpd 010 or DMSO at 20 μM for 40 min at 37° C. with 5% CO2. Cells were then collected, resuspended in PBS and separated into PCR tubes. They were heated at designated temperature for strictly 3 min followed by another 3 min at 25° C. on ABI Applied Biosystems 9902 Veriti PCR Thermal Cycler. Immediately, they were placed in liquid nitrogen for snap freezing. The samples were freeze-thawed until the final samples were place on ice. They were centrifuged and supernatants were collected. Loading dye was mixed and these were processed as per our Western Blot protocol (see above). The following primary antibodies were used; rabbit BRD4 (Cell Signaling, #13440), rabbit BRD2 (Cell Signaling, #5848), and mouse anti-β-actin (Sigma-Aldrich, clone AC-74).
smiles,measurement,setting,value
"CC(=O)N1c2ccc(-c3ccc(CNC(=O)c4cn5cc(-c6cnc(N)nc6)nc(N6CCOCC6)c5n4)cc3)cc2CC[C@@H]1C [Cpd 010, (S)-N-(4-(1-acetyl-2-methyl-1,2,3,4-tetrahydroquinolin-6-yl)benzyl)-6-(2-aminopyrimidin-5-yl)-8-morpholinoimidazo[1,2-a]pyrazine-2-carboxamide]",relative sensitivity of the cell lines,[1]; U266 express MYCN instead of c-MYC,OPM2 cells were the most sensitive and U266 was the least sensitive
same,induction of apoptosis in multiple myeloma cell lines,[1]; six cell lines,induced dose-dependent apoptosis in five of the six treated cells
same,MYC mRNA level,MYC gene,significant decrease in MYC mRNA level
same,gene set enrichment,MYC target genes,enrichment against MYC target genes with a trend toward MTORC1 signaling genes
same,apoptosis in I-BET151-resistant MLL-AF9 cells,[2],"capable of inducing apoptosis in I-BET151-resistant MLL-AF9 cells, comparable to the I-BETE151-sensitive cells"
same,induction of apoptosis,OPM2 cells,even more enhanced apoptosis compared to the combination of two drugs together
same,tumour burden (M-proteins) on treatment,Vk*MYC myeloma cells; SPEP,reduce tumour burden (M-proteins)
same,median survival,Vk*MYC myeloma cells; vehicle 196.5 days,243 days
same,size of the spleen,Eμ-Myc lymphoma cells; single dose 35-45 mg/kg,significantly reduced
same,number of tumour cells in peripheral blood and harvested spleen,"Eμ-Myc lymphoma cells; single injection 35-45 mg/kg, 16 h",marked reduction in number of tumour cells in peripheral blood and harvested spleen
same,PD-L1 expression in tumour cells (indicator for BET inhibition),[3]; harvested LN,significantly reduced
same,pAKT (PI3K substrate),[3]; lysates from harvested LN,suppressed
same,clearance of BRD4 protein with increasing temperature,BRD4,delayed clearance
